Values of other authors as cited in patent US20040241049A1, “Elastomeric tools for the fabrication of elastomeric devices and uses thereof” (priority 2003, published 2004).

Tested on: α1-acid glycoprotein, αAGP
Settings: displacement of quinaldine red from αAGP; stated as known

Row | inhibition of QR/αAGP binding (binder / non-binder) | SMILES
1 | non-binder | CC(C)Cc1ccc(C(C)C(=O)O)cc1 (stereo not drawn) [ibuprofen]
2 | known inhibitors to QR/αAGP binding | CN(C)CCCN1c2ccccc2Sc2ccc(Cl)cc21 [chloropromazine]

Row | SMILES | inhibition of QR/αAGP binding (binder / non-binder)
3 | O=C(O)c1cc(I)cc(I)c1I [tri-idiobenzoic acid] | known inhibitors to QR/αAGP binding
